Patent publication US4826962A, “Tetrachlororaffinose and its use in the preparation of sucralose” (Tate & Lyle Public Limited Company, priority 1985, dated 1989)
≈ marks a conversion by molar mass, not a printed value.

Tests used:
[1] = Solubility in solvents pre-saturated with aqueous buffer at 55° C.; assay type: physicochemical
[2] = test system: Melibiase in the form of pelletised cells of Mortierella vinacea var raffinoseutilizer (ATCC 20034); experiment: Hydrolysis of TCR to sucralose by melibiase pellets in aqueous buffer; assay type: biochemical; details: for TCR hydrolysed: 55° C., pH 5.0, 1% (w/v) TCR
Method: The tetrachlorogalactoraffinose of Example 1 (20 mg) was placed in a screw-top bottle together with 0.1M-citrate-phosphate buffer (pH 5.0) (2 ml) to give a 1% (w/v) solution. This level of water was maintained during the following incubation period by addition of more water when required.
Melibiase in the form of pelletised cells of Mortierella vinacea var raffinoseutilizer (ATCC 20034) (supplied by Hokkaido Sugar Co, Japan) was added (10 mg) and the mixture was incubated at 55° C. for up to 100 hours. The degree of hydrolysis was followed periodically by t.l.c. analysis of withdrawn 250 μl aliquots eluted with ethyl acetate:ethanol:water (45:5:1) or by hplc on a Waters Dextropak Cl8 reverse phase column eluted by acetonitrile 20% (v/v) and products measured using a refractive index detector. The result is plotted in FIG. 1. It was found, for example, that about 53% had been hydrolysed after 48 hours and about 70% after 90 hours. The products were separated by chromatography and, in addition to sucralose, the presence of 6-chlorogalactose and TCR was detected. TCR can be used at up to 15% (w/v) in this system.

[3] = test system: α-Galactosidase in the form of pelletized cells of M. vinacea var raffinoseutilizer (ATCC 20034); experiment: Hydrolysis of TCR to sucralose in organic media; assay type: biochemical; details: for Conversion of TCR into sucralose: 24 hours, 20 mM TCR, 55° C.
Method: The TCR of Example 1 (23 mg) was placed in a 5 ml screw-top vial and 2 ml of an organic solvent which had been pre-saturated with aqueous buffer (sodium acetate, 50 mM, pH 5.0) was added to give a 20 mM (1.15% w/v) solution. α-Galactosidase in the form of pelletized cells of M. vinacea var raffinoseutilizer (ATCC 20034) was added (100 mg) to each vial and the reactions were initiated by adding 1% v/v aqueous buffer, vortexing for 30 seconds, and placing the vial in a water-bath shaker at 55° C. and 100 rpm. Periodically, aliquots were removed and 25 μl were injected into an Hplc system fitted with a reverse phase (Waters Dextropak C18) column, using 20% aqueous acetonitrile as eluant, to measure the sucralose produced and the residual TCR. In the figure the progress of the hydrolysis of TCR into sucralose with time is plotted for aqueous buffer (curve 1) and for three solvents, methyl isobutyl ketone (2), ethyl acetate (3) and n-butanol (4). The hydrolysis reaction in methyl isobutyl ketone and in aqueous buffer were similar. Lower rates and conversions were obtained in ethyl acetate and n-butanol, respectively. In all cases, greater than 50% conversion in 24 hours was observed, with 70% conversions in aqueous buffer and methyl isobutyl ketone.
The reason that the time-course for TCR hydrolysis in ethyl acetate was lower than that in aqueous buffer at 20 mM TCR was due to the higher Km of TCR in ethyl acetate and not due to a lower catalytic activity. When 50 mM TCR was used, the rates and conversions of TCR hydrolysis in ethyl acetate were similar to those in aqueous buffer.

[4] = test system: α-galactosidase of Absidia griseola; experiment: TCR hydrolysis by cell debris of α-galactosidase organisms; assay type: biochemical
Method: (§1) Organisms reported to have an α-galactosidase activity were obtained from the ATCC. They were grown in 500 ml shake flasks containing 100 ml of a mineral salts medium (Jayasuria, 1955 Journal of General Microbiology 12 419-428) containing 1 g/l yeast extract plus 5 g/l raffinose at 30° C. Cells were collected by centrifugation (5000 rev/min for 10 min) in the late exponential phase of growth, resuspended in 5 times their volume of citrate-phosphate buffer pH 5.0, and maintained at 0° C. in an ice bath and were disrupted by 3×20 second bursts in a MSE sonicator (Dawe Soniprobe Type 1130A) at maximum output. The resulting suspension was centrifuged (17,000 rev/min) for 30 minutes and both debris and supernatant assayed for α-galactosidase activity in units per g. dry weight of cell debris using p-nitrophenyl α-D-galactopyranoside (Sigma). Virtually no enzyme activity was detected in the supernatant. Cultures which were positive were then tested for TCR hydrolysis as in Example 4 and the results given in mg sucralose per g dry weight of cell debris per hour (for 70% conversion).

[5] = test system: α-galactosidase of Aspergillus awamori; experiment: as above; assay type: biochemical; details: Aspergillus awamori ATCC 44733, for 70% conversion
Method: as §1

[6] = test system: α-galactosidase of Aspergillus niger; experiment: as above; assay type: biochemical; details: Aspergillus niger ATCC 36220, for 70% conversion
Method: as §1

[7] = test system: α-galactosidase of Circinella muscae; experiment: as above; assay type: biochemical
Method: as §1

[8] = test system: α-galactosidase of Mortierella vinacea; experiment: as above; assay type: biochemical
Method: as §1

[9] = test system: α-galactosidase of Saccharomyces uvarum; experiment: as above; assay type: biochemical; details: Saccharomyces uvarum ATCC 42367, for 70% conversion
Method: as §1

[10] = test system: α-galactosidase of Talaromyces thermophilus; experiment: as above; assay type: biochemical; details: Talaromyces thermophilus ATCC 16461, for 70% conversion
Method: as §1

[11] = Stability of sucralose under the enzyme treatment conditions; assay type: physicochemical; details: about 55° C., pH 5.0
Method: In both aqueous and organic systems, the treatment should naturally be at the optimum temperature and pH for the enzyme which, for the M. vinacea melibiase is about 55° C. and pH 4.5-5.5. In water-saturated organic solvents this refers to the pH of the aqueous buffer. At this temperature and at a pH of 5.0, we find that the sucralose produced is not degraded.

[12] = sweeter than sucrose; cited from earlier work
[13] = cited from earlier work
[14] = organic solvent or mixture, ethyl acetate pre-saturated with aqueous buffer, 55° C.
[15] = organic solvent or mixture, methyl isobutyl ketone pre-saturated with aqueous buffer, 55° C.
[16] = organic solvent or mixture, n-butanol pre-saturated with aqueous buffer, 55° C.
[17] = organic solvent or mixture, n-octanol pre-saturated with aqueous buffer, 55° C.
[18] = organic solvent or mixture, nitrobenzene pre-saturated with aqueous buffer, 55° C.

OC1C(CCl)OC(OCC2OC(OC3(CCl)OC(CCl)C(O)C3O)C(O)C(O)C2Cl)C(O)C1O (centres unmarked) [TCR, 4,1',6',6"-tetrachloro-4,1',6',6"-tetradeoxygalactoraffinose] gave a solubility ([1]; aqueous buffer) of 150 mg/mL (≈ 259 mM), a solubility [1, 14] of over 500 mg/mL and a solubility ([1]; organic solvent or mixture, hydrophilic water-immiscible solvents (ethyl acetate, n-butanol, methyl isobutyl ketone)) of over 500 mg/mL. The solubility ([1]; organic solvent or mixture, hydrophobic water-immiscible solvents (e.g. n-octanol, nitrobenzene, butyronitrile)) was under 50 mg/mL, the solubility [1, 15] was over 500 mg/mL and the solubility [1, 16] was over 500 mg/mL. It also gave a solubility [1, 17] of 50 mg/mL (≈ 86.5 mM), a solubility [1, 18] of under 20 mg/mL and a solubility ([1]; water (aqueous buffer), 55° C.) of 150 mg/mL (≈ 259 mM). For the same compound, the “Rate of reaction on TCR relative to raffinose” value ([2]; M. vinacea melibiase (Hokkaido Sugar Co.)) was “only a few percent of the rate on raffinose itself”, the TCR hydrolysed ([2]; after 48 hours) was “about 53%” and the TCR hydrolysed ([2]; after 90 hours) was “about 70%”. The Kcat ([2]; aqueous solution) was 52.5 mg per g enzyme per hour, the Km ([2]; aqueous solution, read-out: Michaelis constant (Km)) was 5.8 mM and the “Conversion of TCR into sucralose” value ([3]; aqueous buffer) was 70%. For the same compound, the “Conversion of TCR into sucralose” value ([3]; ethyl acetate) was “greater than 50%”, the “Conversion of TCR into sucralose” value ([3]; methyl isobutyl ketone) was 70% and the “Conversion of TCR into sucralose” value ([3]; n-butanol) was “greater than 50%”. The “TCR hydrolysis in highly water-miscible solvents” value ([3]; dioxane, acetone, methanol, THF, even with 30% v/v aqueous buffer) was “unable to support hydrolysis”, the Kcat ([3]; ethyl acetate) was 56.3 mg sucralose/g pellets/h and the Km ([3]; ethyl acetate) was 16.4 mM. For the same compound, the “TCR Hydrolysis” value ([4]; Absidia griseola ATCC 20430, for 70% conversion) was 0 mg sucralose per g dry weight, the “TCR Hydrolysis” value ([4]; Absidia griseola ATCC 20431, for 70% conversion) was < 0.2 mg sucralose per g dry weight and the “TCR Hydrolysis” value ([4]; Absidia griseola ATCC 22618, for 70% conversion) was 0 mg sucralose per g dry weight. For the same compound, the “TCR Hydrolysis” value [5] was 0 mg sucralose per g dry weight, the “TCR Hydrolysis” value [6] was 0.49 mg sucralose per g dry weight and the “TCR Hydrolysis” value ([7]; Circinella muscae ATCC 16008, for 70% conversion) was 1.12 mg sucralose per g dry weight. The “TCR Hydrolysis” value ([7]; Circinella muscae ATCC 20394, for 70% conversion) was < 0.2 mg sucralose per g dry weight, the “TCR Hydrolysis” value ([7]; Circinella muscae ATCC 22337, for 70% conversion) was 0 mg sucralose per g dry weight and the “TCR Hydrolysis” value ([8]; Mortierella vinacea ATCC 20034, for 70% conversion) was 1.09 mg sucralose per g dry weight. For the same compound, the “TCR Hydrolysis” value ([8]; Mortierella vinacea ATCC 34195, for 70% conversion) was 1.33 mg sucralose per g dry weight, the “TCR Hydrolysis” value ([8]; Mortierella vinacea ATCC 42425, for 70% conversion) was 1.06 mg sucralose per g dry weight and the “TCR Hydrolysis” value ([8]; Mortierella vinacea Hokkaido (pellets), for 70% conversion) was 4.3 mg sucralose per g dry weight. For the same compound, the “TCR Hydrolysis” value [9] was 0 mg sucralose per g dry weight and the “TCR Hydrolysis” value [10] was 0 mg sucralose per g dry weight.
Compound OC[C@H]1O[C@H](O[C@]2(CCl)O[C@H](CCl)[C@@H](O)[C@@H]2O)[C@H](O)[C@@H](O)[C@H]1Cl [sucralose, 4,1',6'-trichloro-4,1',6'-trideoxygalactosucrose] has a solubility [1, 14] of 57 mg/mL (≈ 143 mM), a solubility [1, 15] of 60 mg/mL (≈ 151 mM) and a solubility [1, 16] of over 500 mg/mL. The solubility [1, 17] was under 10 mg/mL, the solubility [1, 18] was under 10 mg/mL and the solubility ([1]; water (aqueous buffer), 55° C.) was 300 mg/mL (≈ 754 mM). The “Degradation of sucralose produced” value [11] was “not degraded”, the “Sweetness relative to sucrose” value [12] was “about 600 X” and the Degradation in vivo [13] was “not degraded in vivo”.
